# Experimental data published in patent EP1947089A1, “A-polymorph of a substituted pyrazoline, its preparation and use as medicaments” (Laboratorios del Dr. Esteve S.A., priority 2007, dated 2008).
# Key:
# Herg channel = Herg channel (Homo sapiens, UniProt Q12809); assay: Herg channel affinity; assay type: binding; details: general statement, no value given; low risk of QT prolongation expected
# [1] = Thermogravimetric (TG) analysis; assay type: physicochemical; details: 10°C/min between 30 and 600°C, under nitrogen; no weight loss at lower temperatures
# Description: Thermogravimetric analyses (TGA) were recorded in a Mettler Toldo SDTA851 e. Samples of approximately 2 mg were weighted into open 40 µlalumina crucibles, and heated at 10°C/min between 30 and 600°C, under nitrogen (80 ml/min).
# [2] = Behaviour of the solid form under pressure stress; assay type: physicochemical; details: 98 kN (98.07 kN), 13 mm diameter samples, 1, 5 and 30 minutes
# Description: Samples of the a-Polymorph were submitted to pressure stress for various periods of time (1, 5 and 30 minutes) to investigate the effect of pressure on the solid form. The pressure (98kN) used was chosen to correspond to correspond to the pressure at which planar tablets, of a diameter between 10 and 15 mm, are made. […] Precisely, 13 mm diameter samples of the polymorph were submitted to 98.07 kN of pressure using a Specac press for 1, 5 and 30 minutes and analysed, with no difference.
# Chain of Herg channel (Q12809 whole entry): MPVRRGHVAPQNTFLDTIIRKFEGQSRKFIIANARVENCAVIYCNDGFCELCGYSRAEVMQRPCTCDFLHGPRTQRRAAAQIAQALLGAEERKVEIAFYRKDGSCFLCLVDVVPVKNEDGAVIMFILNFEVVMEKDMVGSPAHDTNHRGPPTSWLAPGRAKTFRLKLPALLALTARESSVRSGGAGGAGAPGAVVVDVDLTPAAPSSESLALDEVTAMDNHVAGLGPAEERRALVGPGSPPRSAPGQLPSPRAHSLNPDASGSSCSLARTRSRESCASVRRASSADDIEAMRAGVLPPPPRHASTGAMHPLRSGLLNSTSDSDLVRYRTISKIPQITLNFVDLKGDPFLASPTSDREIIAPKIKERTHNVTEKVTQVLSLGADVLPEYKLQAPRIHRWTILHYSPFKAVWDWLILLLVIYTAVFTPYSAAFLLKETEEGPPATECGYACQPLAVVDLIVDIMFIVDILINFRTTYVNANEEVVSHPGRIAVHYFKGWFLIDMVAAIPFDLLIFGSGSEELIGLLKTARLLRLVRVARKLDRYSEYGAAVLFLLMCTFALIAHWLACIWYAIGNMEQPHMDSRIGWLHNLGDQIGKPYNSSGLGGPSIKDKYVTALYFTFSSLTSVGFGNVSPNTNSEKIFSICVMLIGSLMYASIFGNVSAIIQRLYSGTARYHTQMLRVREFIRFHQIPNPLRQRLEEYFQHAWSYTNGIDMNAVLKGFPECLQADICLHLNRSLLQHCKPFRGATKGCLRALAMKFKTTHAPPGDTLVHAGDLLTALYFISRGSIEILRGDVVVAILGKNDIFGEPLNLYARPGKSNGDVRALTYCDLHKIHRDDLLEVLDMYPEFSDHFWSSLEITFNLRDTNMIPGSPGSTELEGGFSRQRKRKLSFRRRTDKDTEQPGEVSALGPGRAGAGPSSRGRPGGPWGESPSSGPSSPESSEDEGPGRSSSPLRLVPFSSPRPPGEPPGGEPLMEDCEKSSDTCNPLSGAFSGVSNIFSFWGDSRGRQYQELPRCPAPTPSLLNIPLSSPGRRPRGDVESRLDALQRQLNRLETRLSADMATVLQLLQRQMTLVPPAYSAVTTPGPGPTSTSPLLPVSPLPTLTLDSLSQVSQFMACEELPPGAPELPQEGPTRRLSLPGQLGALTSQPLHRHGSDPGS
SMILES,Herg channel affinity (Herg channel),temperature of weight loss due to decomposition (TG analysis) [1],effect of pressure on the solid form (phase change) [2]
"O=C(NN1CCCCC1)C1=NN(c2ccc(Cl)cc2Cl)C(c2ccc(Cl)cc2)C1 (racemic) [COMPOUND C, N-piperidinyl-5-(4-chlorophenyl)-1-(2,4-dichlorophenyl)-4,5-dihydro-1H-pyrazole-3-carboxamide]",relatively weak,,
"O=C(NN1CCCCC1)C1=NN(c2ccc(Cl)cc2Cl)C(c2ccc(Cl)cc2)C1 (racemic) [α-Polymorph, α-Polymorph of N-piperidinyl-5-(4-chlorophenyl)-1-(2,4-dichlorophenyl)-4,5-dihydro-1H-pyrazole-3-carboxamide]",,higher than 280 °C,did not induce any phase change
